From patent US20120129811A1, “TRICYCLIC INHIBITORS OF PRO-MATRIX METALLOPROTEINASE ACTIVATION” (priority 2010, published 2012)
Structures can show the parent of a compound that is named as a salt.

Columns and labels:
[1] = target: T1, full-length proMMP9(1-707) activation by catalytic MMP3 (Homo sapiens, UniProt P14780, R574P); assay: proMMP9/MMP3 P126 Activation Assay; format: biochemical
T1 construct: made in house; host or cells: proMMP9: HEK293 (secreted); MMP3: E. coli
Description: proMMP9/MMP3 P126 Activation Assay
The reaction volume was 50 μL. […] Reactivity of residual MMP3 towards P-126 substrate was minimal under these conditions.

[2] = target: T2, proMMP9(20-445;ΔFnII) (SEQ ID NO:6) (Homo sapiens, UniProt P14780, DEL216-390); assay: ThermoFluor binding assay with proMMP9(20-445;ΔFnII)
T2 construct: start methionine (N); made in house; host or cells: E. coli BL21(DE3) RIL
T2 sequence (P14780 with tags, fused parts or gaps DEL216-390): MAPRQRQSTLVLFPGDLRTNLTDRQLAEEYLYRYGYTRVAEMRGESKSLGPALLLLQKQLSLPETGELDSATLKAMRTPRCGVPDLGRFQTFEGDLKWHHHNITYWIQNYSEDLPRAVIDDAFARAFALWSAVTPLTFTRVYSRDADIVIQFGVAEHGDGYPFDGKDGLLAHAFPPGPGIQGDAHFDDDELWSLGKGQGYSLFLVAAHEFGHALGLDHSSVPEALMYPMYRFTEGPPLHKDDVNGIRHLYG
Outline: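 Protein thermal stability was measured with 2.8 μM proMMP9(20-445;ΔFnII) and 50 μM 1,8-ANS in 50 mM HEPES pH 7.0, 100 mM NaCl, 0.001% Tween-20, 2.5 mM MgCl2, 300 μM CaCl2, across serial compound dilutions. Samples were heated 40–90° C at 1° C/min with fluorescence read at 500 nm. Tm was fitted, and binding was derived from thermodynamic parameters obtained by DSC and ThermoFluor.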

[3] = target: T3, proMMP9(67-444;ΔFnII) (SEQ ID NO:5) (Homo sapiens, UniProt P14780, DEL216-390); assay: ThermoFluor binding assay with proMMP9(67-444;ΔFnII)
T3 construct: start methionine (N); made in house; host or cells: E. coli BL21(DE3) RIL
T3 sequence (P14780 with tags, fused parts or gaps DEL216-390): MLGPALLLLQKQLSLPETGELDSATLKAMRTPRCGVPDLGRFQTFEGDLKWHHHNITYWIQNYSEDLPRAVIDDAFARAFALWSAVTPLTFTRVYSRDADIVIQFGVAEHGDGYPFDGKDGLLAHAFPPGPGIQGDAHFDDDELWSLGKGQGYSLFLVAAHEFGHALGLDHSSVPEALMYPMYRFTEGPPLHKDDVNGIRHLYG
Outline: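 Thermal shift of 3.5 μM proMMP9(67-444;ΔFnII), desalted beforehand, with 50 μM 1,8-ANS in 50 mM HEPES pH 7.0, 100 mM NaCl, 2.5 mM MgCl2, 300 μM CaCl2, 0.001% Tween-20. Heated 40–90 °C at 1 °C/min, fluorescence read at 500 nm; binding fitted from Tm shifts using DSC- and ThermoFluor-derived unfolding parameters.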

T1 sequence (P14780 20-707 R574P): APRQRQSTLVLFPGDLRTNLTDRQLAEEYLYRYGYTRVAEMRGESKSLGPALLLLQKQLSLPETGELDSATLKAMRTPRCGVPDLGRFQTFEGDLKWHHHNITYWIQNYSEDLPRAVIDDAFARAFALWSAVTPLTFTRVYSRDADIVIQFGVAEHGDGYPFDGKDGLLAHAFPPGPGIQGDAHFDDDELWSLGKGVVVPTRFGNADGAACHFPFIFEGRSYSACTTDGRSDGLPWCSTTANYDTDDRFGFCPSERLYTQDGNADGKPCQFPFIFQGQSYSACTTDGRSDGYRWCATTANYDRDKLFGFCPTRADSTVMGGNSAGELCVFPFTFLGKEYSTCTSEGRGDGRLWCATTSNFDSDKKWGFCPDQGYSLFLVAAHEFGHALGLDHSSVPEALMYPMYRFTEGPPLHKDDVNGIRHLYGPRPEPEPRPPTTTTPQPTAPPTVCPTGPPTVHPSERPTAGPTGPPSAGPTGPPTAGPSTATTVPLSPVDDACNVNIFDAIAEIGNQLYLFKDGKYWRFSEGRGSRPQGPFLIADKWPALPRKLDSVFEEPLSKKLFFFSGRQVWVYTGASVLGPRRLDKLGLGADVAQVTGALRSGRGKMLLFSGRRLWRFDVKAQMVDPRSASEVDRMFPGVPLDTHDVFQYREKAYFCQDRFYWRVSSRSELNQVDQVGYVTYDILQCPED

Row | IC50 [1] [nM] | Kd [2] [nM] | Kd [3] [nM] | SMILES
1 | 410 | > 95000 | 810 | Cc1nc2ccc3sc(Nc4cc(F)ccc4OC(C)C)nc3c2n1C [Example 140, (7,8-Dimethyl-8H-imidazo[4′,5′:3,4]benzo[2,1-d]thiazol-2-yl)-(5-fluoro-2-isopropoxy-phenyl)-amine.TFA]
2 | 1300 | 33000 | 7500 | Cc1nc2ccc3sc(Nc4cc(F)ccc4OC(C)C)nc3c2n1CC(F)(F)F [Example 141, (5-Fluoro-2-isopropoxy-phenyl)-[7-methyl-8-(2,2,2-trifluoro-ethyl)-8H-imidazo[4′,5′:3,4]benzo[2,1-d]thiazol-2-yl]-amine.TFA]
3 | 1800 | > 95000 | 2400 | CC(C)Oc1ccc(F)cc1Nc1nc2c(ccc3ncn(CC(F)(F)F)c32)s1 [Example 142, (5-Fluoro-2-isopropoxy-phenyl)-[8-(2,2,2-trifluoro-ethyl)-8H-imidazo[4′,5′:3,4]-benzo[2,1-d]thiazol-2-yl]-amine.TFA]
4 | 160 | 1200 | 260 | CCn1c(C)nc2ccc3sc(Nc4cc(S(C)(=O)=O)ccc4OC(C)C)nc3c21 [Example 143, (8-Ethyl-7-methyl-8H-imidazo[4′,5′:3,4]benzo[2,1-d]thiazol-2-yl)-(2-isopropoxy-5-methanesulfonyl-phenyl)-amine.TFA]
5 | 260 | 880 | 660 | Cc1nc2ccc3sc(Nc4cc(S(C)(=O)=O)ccc4OC(C)C)nc3c2n1C [Example 144, (7,8-Dimethyl-8H-imidazo[4′,5′:3,4]benzo[2,1-d]thiazol-2-yl)-(2-isopropoxy-5-methanesulfonyl-phenyl)-amine.TFA]
6 | 390 | 2500 | 560 | Cc1nc2ccc3sc(Nc4cc(S(C)(=O)=O)ccc4OC(C)C)nc3c2n1CC(F)(F)F [Example 145, (2-Isopropoxy-5-methanesulfonyl-phenyl)-[7-methyl-8-(2,2,2-trifluoro-ethyl)-8H-imidazo[4′,5′:3,4]benzo[2,1-d]thiazol-2-yl]-amine.TFA]
7 | 800 | 3100 | 640 | CC(C)Oc1ccc(S(C)(=O)=O)cc1Nc1nc2c(ccc3ncn(CC(F)(F)F)c32)s1 [Example 146, (2-Isopropoxy-5-methanesulfonyl-phenyl)-[8-(2,2,2-trifluoro-ethyl)-8H-imidazo[4′,5′:3,4]-benzo[2,1-d]thiazol-2-yl]-amine.TFA]
8 | 220 | 1400 | 400 | CC(C)Oc1ccc(S(C)(=O)=O)cc1Nc1nc2c(ccc3c2ncn3C)s1 [Example 147, (2-Isopropoxy-5-methanesulfonyl-phenyl)-(6-methyl-6H-imidazo[4′,5′:3,4]benzo[2,1-d]thiazol-2-yl)-amine.TFA]
9 | 220 | 860 | 290 | COc1ccncc1Nc1nc2c(ccc3nc(C)n(CC(F)(F)F)c32)s1 [Example 148, (4-Methoxy-pyridin-3-yl)-[7-methyl-8-(2,2,2-trifluoro-ethyl)-8H-imidazo[4′,5′:3,4]benzo[2,1-d]thiazol-2-yl]-amine.TFA]
10 | 110 | 1000 | 39 | COc1ccncc1Nc1nc2c(ccc3c2ncn3C)s1 [Example 149, (4-Methoxy-pyridin-3-yl)-(6-methyl-6H-imidazo[4′,5′:3,4]benzo[2,1-d]thiazol-2-yl)-amine.TFA]
11 | 340 | 8800 | 1200 | COc1ccc(S(C)(=O)=O)cc1Nc1nc2c(ccc3cnn(C)c32)s1 [Example 150, (5-Methanesulfonyl-2-methoxy-phenyl)-(1-methyl-1H-6-thia-1,2,8-triaza-as-indacen-7-yl)-amine.TFA]
12 | 650 | 1400 | 600 | COc1ccncc1Nc1nc2c(ccc3ncn(CC(F)(F)F)c32)s1 [Example 153, N-(4-Methoxypyridin-3-yl)-8-(2,2,2-trifluoroethyl)-8H-imidazo[4′,5′:5,6]-benzo[1,2-d]thiazol-2-amine]
13 | 630 | 6600 | 1100 | COc1ccncc1Nc1nc2c(ccc3nc(C)n(C)c32)s1 [Example 154, N-(4-Methoxypyridin-3-yl)-7,8-dimethyl-8H-imidazo[4′,5′:5,6]benzo[1,2-d]thiazol-2-amine.TFA]
14 | 150 | 720 | 140 | CCOc1ccncc1Nc1nc2c(ccc3nc(C)n(CC)c32)s1 [Example 155, N-(4-Ethoxypyridin-3-yl)-8-ethyl-7-methyl-8H-imidazo[4′,5′:5,6]benzo[1,2-d]thiazol-2-amine.TFA]
15 | 100 | 650 | 40 | CCOc1ccncc1Nc1nc2c(ccc3c2ncn3C)s1 [Example 156, N-(4-Ethoxypyridin-3-yl)-6-methyl-6H-imidazo[4′,5′:5,6]benzo[1,2-d]thiazol-2-amine.HCl]
16 | 42 | 350 | 18 | CC(C)Oc1ccncc1Nc1nc2c(ccc3c2ncn3C)s1 [Example 157, N-(4-Isopropoxypyridin-3-yl)-6-methyl-6H-imidazo[4′,5′:5,6]benzo[1,2-d]thiazol-2-amine.HCl]
17 | 64 | 260 | 14 | Cc1nc2c3nc(Nc4cnccc4OC(C)C)sc3ccc2n1C [Example 158, N-(4-Isopropoxypyridin-3-yl)-6,7-dimethyl-6H-imidazo[4′,5′:5,6]benzo[1,2-d]thiazol-2-amine.HCl]
18 | 66 | 380 | 43 | CCn1c(C)nc2ccc3sc(Nc4cnccc4OC(C)C)nc3c21 [Example 159, 8-Ethyl-N-(4-isopropoxypyridin-3-yl)-7-methyl-8H-imidazo[4′,5′:5,6]benzo[1,2-d]thiazol-2-amine.HCl]
19 | 160 | 290 | 75 | CC(C)Oc1ccc(C#N)cc1Nc1nc2c(ccc3c2ncn3C)s1 [Example 160, 4-isopropoxy-3-((6-methyl-6H-imidazo[4′,5′:5,6]benzo[1,2-d]thiazol-2-yl)amino)benzonitrile.HCl]
20 | 180 | 360 | 110 | Cn1cnc2c3nc(Nc4cc(C#N)ccc4OC(F)(F)F)sc3ccc21 [Example 164]
